Data on 1 compound can be found in article PMC3726336, “Product inhibition of cellulases studied with ^14C-labeled cellulose substrates” (Biotechnology for Biofuels, 2013).

Read-outs that look alike come from different tables or passages of the source.

Common to all, as to type: biochemical
Assay [1] addresses TaCel7A (Thermoascus aurantiacus, UniProt A7WNU2). Kind of assay: Cellobiose inhibition of MUL hydrolysis by TaCel7A. The settings on record: MUL substrate (5 μM). An excerpt:
(§1) The cellobiose inhibition of GH7 CBHs is most often studied on low-Mw model substrates. However, it has been shown that the inhibition of CBHs acting on low-Mw substrates appears to be much stronger than that on cellulose substrates. The Ki values for cellobiose inhibition of GH7 CBHs measured on low-Mw substrates are in the micromolar range [44, 51, 52], whereas those measured on cellulose are in the low- to high-millimolar range [28, 31, 32]. […] Unfortunately, the inhibition of this enzyme on cellulose has not been studied. We also studied the cellobiose inhibition of GH7 CBHs acting on MUL. The initial rates of MUL hydrolysis measured in the presence and absence of added cellobiose were first analyzed according to Equation 1, and the IC50 values were found using Equation 2. […] The inhibition of MUL hydrolysis is attributable to the binding of cellobiose to the product sites (+1/+2) of TrCel7A [52]. […]
(§2) For the inhibition of enzyme acting on the low-Mw substrate, the initial rates of the hydrolysis of MUL in the presence and absence of added cellobiose were followed. […] Reactions were stopped by the addition of NH3 (final concentration 0.1 M), and the released 4-methylumbelliferone was quantified by fluorescence using excitation and emission wavelengths of 360 nm and 450 nm, respectively.

For assay [2], the target named is T1, AtCel7A (Acremonium thermophilum, UniProt A7WNT9). Kind of assay: Cellobiose inhibition of MUL hydrolysis by AtCel7A. The settings on record: MUL substrate (5 μM).
T1 sequence (A7WNT9 entry or part of it): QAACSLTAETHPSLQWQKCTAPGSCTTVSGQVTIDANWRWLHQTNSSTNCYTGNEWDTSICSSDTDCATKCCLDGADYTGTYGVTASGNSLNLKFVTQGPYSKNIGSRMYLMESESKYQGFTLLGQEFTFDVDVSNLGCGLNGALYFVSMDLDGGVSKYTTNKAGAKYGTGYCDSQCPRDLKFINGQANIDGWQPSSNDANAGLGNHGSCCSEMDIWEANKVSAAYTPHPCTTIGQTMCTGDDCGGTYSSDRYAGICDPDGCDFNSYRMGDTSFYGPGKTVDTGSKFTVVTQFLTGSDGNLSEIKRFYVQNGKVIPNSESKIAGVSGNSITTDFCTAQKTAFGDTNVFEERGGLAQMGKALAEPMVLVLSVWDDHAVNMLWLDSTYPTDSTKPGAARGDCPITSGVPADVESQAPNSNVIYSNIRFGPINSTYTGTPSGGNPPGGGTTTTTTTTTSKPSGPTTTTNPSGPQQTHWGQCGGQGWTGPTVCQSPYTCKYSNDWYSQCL
From the text: as §1, §2

In assay [3] the target is T1, AtCel7A. Kind of assay: Inhibition of synergistic hydrolysis of 14C-BC by AtCel7A (supplemented with EG TrCel5A). The following applies: 14C-BC substrate, read-out: IC50 for cellobiose. As to the method: To study the cellobiose inhibition of GH7 CBHs, the synergistic hydrolysis of ^14C-BC in the presence of added cellobiose was followed (Figure 3, Additional file 1: Figures S1 and S2). Because the cellobiose inhibition of the EG TrCel5A is much weaker than that of GH7 CBHs, the inhibition of synergistic hydrolysis apparently reflects the inhibition of CBH. The strength of cellobiose inhibition was analyzed using plots of (DCB/DCB=0) versus [cellobiose], where DCB and DCB=0 represent the degree of conversion of ^14C-BC in the presence and absence of cellobiose, respectively (Figure 4, Additional file 1: Figure S3). In the case of experiments without added cellobiose, the reactions were provided with N188BG to prevent the inhibition of the CBH by the cellobiose released during hydrolysis. Experiments with no added cellobiose and without BG were also conducted. […] Therefore, the concentration of the cellobiose released during hydrolysis was added to the concentration of externally supplied cellobiose in generating the plots in Figure 4 and Additional file 1: Figure S3. For the calculation of IC50 values, the data were first fitted to hyperbolae:
where [CB] is the concentration of cellobiose; [^14CBC] is the concentration of ^14C-BC used in the experiment; and C1, C2 and H are empirical constants. Equation 5 differs from Equation 1 by the presence of constant H. H was included to improve the fit and is a constant that accounts for the background radioactivity (the degree of conversion that is independent of CBH). The degree of conversion resulting from the activity of the EG was measured in a separate experiment (Additional file 1: Figure S4) and was subtracted from the degree of conversion resulting from the synergistic hydrolysis. Thus, in the case of complete inhibition, H should have a value of zero. […] Provided with the values of C1, C2 and H, the value of IC50 was calculated as follows: […]
Using the time course data measured in the presence and absence of cellobiose, the IC50 values were first found separately for each time point (Figure 4A). […]

TaCel7A, sequence (A7WNU2 entry or part of it): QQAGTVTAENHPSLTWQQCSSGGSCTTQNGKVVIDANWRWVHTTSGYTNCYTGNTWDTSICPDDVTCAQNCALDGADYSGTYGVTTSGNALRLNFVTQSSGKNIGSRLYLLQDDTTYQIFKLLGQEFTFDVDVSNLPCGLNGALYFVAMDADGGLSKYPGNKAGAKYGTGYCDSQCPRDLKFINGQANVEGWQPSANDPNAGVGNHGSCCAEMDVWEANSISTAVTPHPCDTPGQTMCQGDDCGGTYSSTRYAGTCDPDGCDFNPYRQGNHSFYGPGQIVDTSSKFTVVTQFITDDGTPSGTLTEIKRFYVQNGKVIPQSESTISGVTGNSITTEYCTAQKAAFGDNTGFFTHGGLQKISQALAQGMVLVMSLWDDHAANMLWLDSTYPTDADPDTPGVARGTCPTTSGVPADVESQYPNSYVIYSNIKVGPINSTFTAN

On to `O=C[C@H](O)[C@@H](O)[C@H](O[C@@H]1O[C@H](CO)[C@@H](O)[C@H](O)[C@H]1O)[C@H](O)CO` [cellobiose, Cellobiose], for which the Ki in assay [1] (35°C) amounted to 176 µM; in assay [1] (50°C) it was 355 µM; in assay [2] (35°C) it was 95 µM; in assay [2] (50°C), 233 µM. The IC50 was determined as 190 ± 100 µM in assay [3] (25°C, IC50 decreased with hydrolysis time); 440 ± 100 µM in assay [3] (35°C); 2120 ± 1400 µM in assay [3] (50°C, IC50 increased with hydrolysis time).

What is called Ki is a measure of affinity in units of concentration, obtained from inhibition or displacement. As usually defined, the IC50 is the midpoint of a concentration-inhibition curve.
